Data from patent US8604059B2, “Thioxanthene derivatives for the treatment of infectious diseases” (BKG Pharma APS, priority 2009, dated 2013).
Values after ≈ are worked out from the molar mass of the structure shown.

Legend:
[1] = test system: E. coli; assay: MIC, microdilution broth, multiresistant clinical isolates (Table 1A); type: cell-based; details: Escherichia coli; ten multiresistant clinical isolates; read-out: Median MIC E. coli
[2] = test system: E. faecalis; assay: as above; type: cell-based; details: Enterococcus faecalis; ten multiresistant clinical isolates; read-out: Median MIC E. faecalis
[3] = test system: S. aureus; assay: as above; type: cell-based; details: Staphylococcus aureus; ten multiresistant clinical isolates; read-out: Median MIC S. aureus
[4] = test system: Enterococci sp.; assay: MIC on multiresistant and susceptible clinical isolates of Enterococci (Table 2); type: cell-based, Enterococcus faecalis and Enterococcus faecium; details: 8 multiresistant (VanA, VanB, HLAR, BLR,CR) and 8 susceptible isolates
Method: Cell growth was tested using the Minimal Inhibitory Concentration (MIC) susceptibility tests by use of the microdilution broth method in accordance to the NCCLS Guidelines (NCCLS Guidelines, Methods for Dilution Antimicrobial Susceptibility Tests for Bacteria That Grow Aerobically; Approved Standard, Sixth Edition, Volume 23; Number 2). The minimum inhibitory concentration (MIC), is defined as the lowest concentration of drug which inhibits growth of the test organism, in the sense that no visible growth is detected (total inhibition of growth). In example 2, MIC of the compounds used on fungal microorgansims was determined from the IC90 measurements according to NCCLS Guidelines.
A log phase culture of bacteria was diluted with fresh pre-warmed Mueller-Hinton medium and adjusted to a defined OD at 600 nm in order to give a final concentration of 1×10^4-5 bacteria/ml medium. The bacterial culture was transferred to microtiter-plates and culture was added to each well. Drug was added to the bacterial culture in the wells as two-fold dilution series of drug in order to give final concentrations ranging from 0.03 to 128 μg/ml. Trays were incubated at 37° C. by shaking in a robot analyzer, PowerWavex, software KC^4′ Kebo. Lab, Copenhagen, for 16 h and optical densities were measured at 600 nm during the incubation time in order to record growth curves. […]

[5] = test system: Candida species; assay: MIC on clinical isolates of Candida species, broth microdilution NCCLS M27-A (Table 3); type: cell-based; details: Candida species incl. fluconazole resistant; MIC = 90% growth inhibition
Method: The antibacterial effect of demethylated/dealkylated phenothiazine or thioxanthene compounds were studied by growth inhibition studies exposing cells to 0-32 μg/ml of drug. Each experiment was repeated in triplicate. MIC values represent the mean values of two separate triplicate experiments.
4 clinical isolates of Candida species (including 3 fluconazole resistant isolates) were subcultured for 24 h on Sabouraud glucose agar before susceptibility testing. Broth microdilution tests were performed according to NCCLS document M27-A (Ref: National Commitee for Clinical Laboratory Standards. (1997). Reference Method for Broth Dilution Antifungal Susceptibility Testing of Yeasts: Approved Standard M27-A. NCCLS, Wayne, Pa.). Microtitre plates were read spectrophotometrically at 530 nm, after mixing the wells by pipetting to resuspend yeast sediments. In this experiment, the MIC was defined as the lowest drug dilution resulting in 90% growth inhibition.

[6] = test system: E. faecalis MDR/VRE clinical isolates; assay: FIC index, synergy with antibiotics (Table 4a); type: cell-based, Enterococcus faecalis; details: 8 MDR/VRE E. faecalis, mean, compound at ¼ of MIC
Method: The effect of the compounds was tested according to the methods described in WO2005/105145. In brief, cell growth was tested using the MIC susceptibility tests by use of the microdilution broth method in accordance to the NCCLS Guidelines (NCCLS Guidelines, Methods for Dilution Antimicrobial Susceptibility Tests for Bacteria That Grow Aerobically; Approved Standard, Sixth Edition, Volume 23; Number 2).
The Fractional Inhibitory Concentration (FIC) index were calculated for each compound as described in WO2005/105145. Synergy was defined for Fractional Inhibitory Concentration (FIC) indices less than 0.5
Enterococcus faecalis: 8 multidrug resistant in vivo-selected clinical isolates. […] Expressing change in the cell wall precursor target as a major resistance mechanism (VanA gene expression).

Structure (SMILES): Clc1ccc2c(c1)/C(=C/CCC1CCNCC1)c1ccccc1S2 [Compound 3]
- MIC [1]: 3 µg/mL (≈ 8.43 µM)
- MIC [2]: 0.1 µg/mL (≈ 0.281 µM)
- MIC [3]: 2 µg/mL (≈ 5.62 µM)
- MIC Mean (range) [4]: 0.125 (0.06-0.125) μ/ml
- MIC Mean (range) [5]: 1.0 (0.25-2.0) μ/ml
- FIC index ([6]; with Ciprofloxacin): 0.25
- FIC index ([6]; with Dicloxacillin): 0.25
